Consider seven compounds from US11332477B2, “Nitrogen containing heterocycle substituted benzoxazine oxazolidinone compound and preparation method and use thereof” (INSTITUTE OF MATERIA MEDICA, CHINESE ACADEMY OF MEDICAL …, priority 2017, dated 2022).

In brackets after ≈: the same amount, converted by molar mass.

Assay [1] deals with Linezolid-resistant strain. The assay can be described thus: microbe, parasite or virus in culture. The format is cell-based. Particulars: Mycobacterium tuberculosis, read-out: MIC Linezolid-resistant strain.
Assay [2] relates to clinically isolated 12525 strains (rifampicin- and isoniazid-resistant strains). The assay can be described thus: microbe, parasite or virus in culture. The format is cell-based. To be noted: Mycobacterium tuberculosis, read-out: MIC 12525.

As for `CC(=O)NC[C@@H]1OC(=O)N2c3cc(F)c(N4CCSCC4)cc3OC[C@@H]12` [Compound 4, N-(((3S,3aS)-8-Fluoro-1-oxo-7-thiomorpholino-3a,4-dihydro-1H,3H-benzo[b]oxazolo[3,4-d][1,4]oxazin-3-yl)methyl)acetamide], the MIC in assay [1] was 0.246 µg/mL (≈ 0.645 µM); in assay [2], less than 0.016 µg/mL.

On to `CC(=O)NC[C@@H]1OC(=O)N2c3cc(F)c(N4CC[S+]([O-])CC4)cc3OC[C@@H]12` [Compound 23, N-(((3S,3aS)-8-Fluoro-1-oxo-7-(1-oxidothiomorpholino)-3a,4-dihydro-1H,3H-benzo[b]oxazolo[3,4-d][1,4]oxazin-3-yl)methyl)acetamide], for which the MIC in assay [2] was found to be 0.053 µg/mL (≈ 0.133 µM).

As for `CC(=O)NC[C@H]1OC(=O)N2c3cc(F)c(N4CCSCC4)cc3OC[C@H]12` [Compound 28, N-(((3R,3aR)-8-Fluoro-1-oxo-7-thiomorpholino-3a,4-dihydro-1H,3H-benzo[b]oxazolo[3,4-d][1,4]oxazin-3-yl)methyl)acetamide], the MIC turned out to be 3.02 µg/mL (≈ 7.91 µM) in assay [1] and 0.047 µg/mL (≈ 0.123 µM) in assay [2].

In the case of `CC(=O)NC[C@@H]1OC(=O)N2c3ccc(N4CCOCC4)cc3OC[C@@H]12` [Compound VII, reference compound], the results for the MIC in assay [1] and in assay [2] were 21.6 µg/mL (≈ 62.2 µM) and 0.119 µg/mL (≈ 0.343 µM), respectively. As for `CC(=O)NC[C@H]1CN(c2ccc(N3CCOCC3)c(F)c2)C(=O)O1` [Linezolid, reference compound], the MIC in assay [1] was 4 µg/mL (≈ 11.9 µM); in assay [2], 0.138 µg/mL (≈ 0.409 µM). As for `NNC(=O)c1ccncc1` [isoniazid], the figures for the MIC in assay [1] and in assay [2] were 0.032 µg/mL (≈ 0.233 µM) and greater than 40 µg/mL, respectively. Turning to `CO[C@H]1/C=C/O[C@@]2(C)Oc3c(C)c(O)c4c(O)c(c(/C=N/N5CCN(C)CC5)c(O)c4c3C2=O)NC(=O)/C(C)=C\C=C\[C@H](C)[C@H](O)[C@@H](C)[C@@H](O)[C@@H](C)[C@H](OC(C)=O)[C@@H]1C` [rifampicin], the MIC in assay [1] worked out at 0.073 µg/mL (≈ 0.0887 µM); in assay [2] it was 22.4 µg/mL (≈ 27.2 µM).
